Assay results from ChEMBL document CHEMBL1201862, “PubChem BioAssay data set” (2004).
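A five-concentration, 48-hour dose response in 96-well plates underlies each endpoint, interpolated linearly between surrounding concentrations. GI50 = concentration required for 50% inhibition of growth.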 Activity calls are given as the source filed them. Cut-off read from the data, not from the text of the source: active = GI50 up to about 1.1 µM and inactive = higher.

Key:
Assay in all cases: NCI tumour cell line growth inhibition, 48 h
SF-539 = tested on: SF-539
OVCAR-3 = tested on: OVCAR-3
K562 = tested on: K562
OVCAR-4 = tested on: OVCAR-4
HCC 2998 = tested on: HCC 2998
NCI/ADR-RES = tested on: NCI/ADR-RES
SR = tested on: SR
U-251 = tested on: U-251
MDA-N = tested on: MDA-N
COLO 205 = tested on: COLO 205
NCI-H226 = tested on: NCI-H226
IGROV-1 = tested on: IGROV-1
HOP-62 = tested on: HOP-62
M14 = tested on: M14
SK-MEL-2 = tested on: SK-MEL-2
SN12C = tested on: SN12C
DU-145 = tested on: DU-145
RPMI-8226 = tested on: RPMI-8226
OVCAR-5 = tested on: OVCAR-5
CCRF-CEM = tested on: CCRF-CEM

SMILES | GI50 (SF-539) | GI50 (OVCAR-3) | GI50 (K562) | GI50 (OVCAR-4) | GI50 (HCC 2998) | GI50 (NCI/ADR-RES) | GI50 (SR) | GI50 (U-251) | GI50 (MDA-N) | GI50 (COLO 205) | GI50 (NCI-H226) | GI50 (IGROV-1) | GI50 (HOP-62) | GI50 (M14) | GI50 (SK-MEL-2) | GI50 (SN12C) | GI50 (DU-145) | GI50 (RPMI-8226) | GI50 (OVCAR-5) | GI50 (CCRF-CEM)
CCOC(=O)C(NC(=O)c1ccccc1)(Nc1ccc(S(=O)(=O)Nc2ncccn2)cc1)C(F)(F)F (centres undefined) | > 100 µM (inactive) | > 100 µM (inactive) | > 100 µM (inactive) | > 100 µM (inactive) | > 100 µM (inactive) | > 100 µM (inactive) | > 100 µM (inactive) | > 100 µM (inactive) | > 100 µM (inactive) | > 100 µM (inactive) | > 100 µM (inactive) | > 100 µM (inactive) | > 100 µM (inactive) | > 100 µM (inactive) | > 100 µM (inactive) | > 100 µM (inactive) | > 100 µM (inactive) | > 100 µM (inactive) | > 100 µM (inactive) | > 100 µM (inactive)
CC(C)/C=C1\CCC(CN(C)C)C1=O (centres undefined) | 7.29 µM (inactive) | 2.82 µM (inactive) | 0.893 µM (active) | 7.35 µM (inactive) | 7.03 µM (inactive) | 3 µM (inactive) | 0.951 µM (active) | 18.3 µM (inactive) | 2.92 µM (inactive) | 0.586 µM (active) | 26.9 µM (inactive) | 7.05 µM (inactive) | 18.4 µM (inactive) | 1.77 µM (inactive) | 7.05 µM (inactive) | 2.21 µM (inactive) | 1.81 µM (inactive) | 0.13 µM (active) | 8.41 µM (inactive) | 1.63 µM (inactive)
N#CC(C#N)=Cn1c(=S)[nH]c2ccc([N+](=O)[O-])cc21 | > 100 µM (inactive) | > 100 µM (inactive) | > 100 µM (inactive) | > 100 µM (inactive) | > 100 µM (inactive) | > 100 µM (inactive) | > 100 µM (inactive) | > 100 µM (inactive) | > 100 µM (inactive) | > 100 µM (inactive) | > 100 µM (inactive) | > 100 µM (inactive) | > 100 µM (inactive) | > 100 µM (inactive) | > 100 µM (inactive) | > 100 µM (inactive) | > 100 µM (inactive) | > 100 µM (inactive) | > 100 µM (inactive) | > 100 µM (inactive)
COc1ccc(NC(=O)CC(=O)N2N=C(C)C(/N=N\c3ccc(S(=O)(=O)c4ccc(/N=N/C5C(=O)N(C(=O)CC(=O)Nc6ccc(OC)cc6)N=C5C)cc4)cc3)C2=O)cc1 (centres undefined) | > 100 µM (inactive) | > 100 µM (inactive) | 50 µM (inactive) | > 100 µM (inactive) | > 100 µM (inactive) | > 100 µM (inactive) | > 100 µM (inactive) | > 100 µM (inactive) | > 100 µM (inactive) | > 100 µM (inactive) | > 100 µM (inactive) | 55.1 µM (inactive) | 45.6 µM (inactive) | > 100 µM (inactive) | > 100 µM (inactive) | > 100 µM (inactive) | > 100 µM (inactive) | > 100 µM (inactive) | – | > 100 µM (inactive)
CCOc1ccc(Nc2nc(N)nc(N)c2N=O)cc1 | 80.5 µM (inactive) | 24.6 µM (inactive) | 53.5 µM (inactive) | 69.3 µM (inactive) | 55.2 µM (inactive) | 47.1 µM (inactive) | 71.1 µM (inactive) | > 100 µM (inactive) | 62.1 µM (inactive) | > 100 µM (inactive) | 39.6 µM (inactive) | 7.69 µM (inactive) | 50.1 µM (inactive) | > 100 µM (inactive) | 65.2 µM (inactive) | 56.6 µM (inactive) | 38 µM (inactive) | 47.4 µM (inactive) | > 100 µM (inactive) | > 100 µM (inactive)
Cc1ccc(C(=O)C#Cc2cn(C3CC(O)C(CO)O3)c(=O)[nH]c2=O)cc1 (centres undefined) | > 100 µM (inactive) | 26.2 µM (inactive) | – | 95.9 µM (inactive) | > 100 µM (inactive) | > 100 µM (inactive) | 35.2 µM (inactive) | > 100 µM (inactive) | > 100 µM (inactive) | 38.6 µM (inactive) | > 100 µM (inactive) | > 100 µM (inactive) | > 100 µM (inactive) | 53.1 µM (inactive) | > 100 µM (inactive) | > 100 µM (inactive) | > 100 µM (inactive) | 67.8 µM (inactive) | – | –
Cc1nn(C(=O)c2ccncc2)c2c1C(c1ccccc1)SC(=N)N2 (centres undefined) | > 10 µM (inactive) | > 10 µM (inactive) | > 10 µM (inactive) | > 10 µM (inactive) | > 10 µM (inactive) | > 10 µM (inactive) | > 10 µM (inactive) | > 10 µM (inactive) | > 10 µM (inactive) | > 10 µM (inactive) | > 10 µM (inactive) | > 10 µM (inactive) | > 10 µM (inactive) | > 10 µM (inactive) | > 10 µM (inactive) | > 10 µM (inactive) | > 10 µM (inactive) | > 10 µM (inactive) | > 10 µM (inactive) | > 10 µM (inactive)
CN1CCN(CCCCN2c3ccccc3Sc3ccc(C(=O)c4ccccc4)cc32)CC1 | 1.83 µM (inactive) | 1.66 µM (inactive) | 1.48 µM (inactive) | 2.08 µM (inactive) | 1.56 µM (inactive) | 1.86 µM (inactive) | 1.41 µM (inactive) | 1.69 µM (inactive) | 1.55 µM (inactive) | 1.75 µM (inactive) | 1.8 µM (inactive) | 1.72 µM (inactive) | 1.6 µM (inactive) | 1.82 µM (inactive) | 1.77 µM (inactive) | 1.71 µM (inactive) | 2.29 µM (inactive) | 1.79 µM (inactive) | 2.84 µM (inactive) | 1.64 µM (inactive)
COc1ccc2c(c1)/C(=C\c1c(C)nc3sc(C)cn13)C(=O)N2 | 0.204 µM (active) | 0.297 µM (active) | 0.446 µM (active) | 12.7 µM (inactive) | 0.337 µM (active) | 1.36 µM (inactive) | 0.409 µM (active) | 0.217 µM (active) | 0.124 µM (active) | 0.14 µM (active) | 0.841 µM (active) | 0.755 µM (active) | 1.53 µM (inactive) | 0.75 µM (active) | 0.263 µM (active) | 8.49 µM (inactive) | 4.83 µM (inactive) | 0.581 µM (active) | 3.24 µM (inactive) | 0.455 µM (active)
COc1ccc(-c2cc(C3CC3)nc(SCC(=O)O)c2C#N)cc1 | > 100 µM (inactive) | 83.2 µM (inactive) | 64.3 µM (inactive) | 79.8 µM (inactive) | > 100 µM (inactive) | > 100 µM (inactive) | 55.8 µM (inactive) | 58.9 µM (inactive) | > 100 µM (inactive) | > 100 µM (inactive) | 82.6 µM (inactive) | > 100 µM (inactive) | > 100 µM (inactive) | > 100 µM (inactive) | > 100 µM (inactive) | > 100 µM (inactive) | 85.3 µM (inactive) | 35.6 µM (inactive) | > 100 µM (inactive) | 57.8 µM (inactive)
CC(=O)Oc1ccc2cc(-c3ccccc3OC(C)=O)c(=O)oc2c1 | 59.3 µM (inactive) | 24.8 µM (inactive) | 38 µM (inactive) | 18.3 µM (inactive) | 48.1 µM (inactive) | 36.5 µM (inactive) | 7.69 µM (inactive) | 34 µM (inactive) | 49.5 µM (inactive) | > 100 µM (inactive) | 27.7 µM (inactive) | – | 54.1 µM (inactive) | 51.4 µM (inactive) | 53.7 µM (inactive) | 76 µM (inactive) | 21.7 µM (inactive) | 28.8 µM (inactive) | 69 µM (inactive) | 6.15 µM (inactive)
CC(=O)O[C@H]1C[C@@H](O[C@H]2[C@@H](O)C[C@H](O[C@H]3[C@@H](O)C[C@H](O[C@H]4CC[C@@]5(C)[C@H](CC[C@@H]6[C@@H]5C[C@@H](O)[C@]5(C)[C@@H](C7=CC(=O)OC7)CC[C@]65O)C4)O[C@@H]3C)O[C@@H]2C)O[C@H](C)[C@H]1O.CC(=O)O[C@H]1[C@@H](O)C[C@@H](O[C@H]2[C@@H](O)C[C@H](O[C@H]3[C@@H](O)C[C@H](O[C@H]4CC[C@@]5(C)[C@H](CC[C@@H]6[C@@H]5C[C@@H](O)[C@]5(C)[C@@H](C7=CC(=O)OC7)CC[C@]65O)C4)O[C@@H]3C)O[C@@H]2C)O[C@@H]1C | 0.0315 µM (active) | 0.0119 µM (active) | 0.0291 µM (active) | 0.0153 µM (active) | 0.104 µM (active) | 0.0238 µM (active) | 0.0443 µM (active) | 0.0302 µM (active) | 0.0402 µM (active) | 0.0472 µM (active) | 0.0508 µM (active) | 0.0354 µM (active) | 0.0336 µM (active) | 0.0637 µM (active) | 0.0679 µM (active) | 0.0423 µM (active) | 0.0192 µM (active) | 0.0395 µM (active) | 0.033 µM (active) | 0.617 µM (active)
CCCCOc1ccc(S(=O)(=O)N/C(=N\O)Nc2ccc(Cl)cc2)cc1 | 20.8 µM (inactive) | 14.9 µM (inactive) | 18.3 µM (inactive) | 10.8 µM (inactive) | 14.3 µM (inactive) | 15.8 µM (inactive) | 11 µM (inactive) | 15.5 µM (inactive) | 17.7 µM (inactive) | 18.3 µM (inactive) | 24 µM (inactive) | – | 17.9 µM (inactive) | 15.2 µM (inactive) | 16.3 µM (inactive) | 17.3 µM (inactive) | 15.9 µM (inactive) | 21.1 µM (inactive) | 18.6 µM (inactive) | 19 µM (inactive)
